From patent publication US9487555B2, “Prodrug of an ice inhibitor” (VERTEX PHARMACEUTICALS INCORPORATED, priority 2000, dated 2016)

Experiment: Oral pharmacokinetic studies in rats (quantitation of ICE inhibitor in rat plasma by HPLC/MS/MS)
Format: in vivo, Male Sprague-Dawley rats
Conditions: for AUC: male Sprague-Dawley rats, oral 50 mg/kg in 100% propylene glycol, plasma, noncompartmental; for Bioavailability (in words): amount of ICE inhibitor in rat plasma after oral administration, comparison in words
Procedure: Applicants studied a number of prodrug ICE inhibitors, including examples listed in the aforementioned WO 99/47545. Bioavailability was determined by quantitating the amount of ICE inhibitor in rat plasma after oral administration, as described below.
Male Sprague-Dawley rats (Harlan, Indianapolis, Ind., 300-350 g) were anesthetized by an intramuscular injection of ketamine/rompun mixture. A PE-50 cannula was inserted in the right carotid artery for arterial blood sampling. The rats were allowed to recover from surgery overnight (16 hours) prior to being used in the study. Test compounds were administered orally at 50 mg/kg 100% propylene glycol (PG) at a dose volume of 10 mL/kg. Blood samples (˜0.30 mL) were removed at 0.25, 0.50, 1.0, 1.5, 2, 3, 4, 6, and 8 hours post-dose, plasma separated by centrifugation and stored at −80° C. pending analysis. Quantification of the plasma samples was conducted using a gradient HPLC/MS/MS similar to the one detailed below: […]
HPLC/MS/MS Method for the Quantitation of ICE Inhibitors in Rat Plasma
1. 100 μl of plasma are aliquotted into Ependorf centrifuge vials.
2. An equal volume of acetonitrile is added to the plasma to precipitate plasma proteins.
3. Samples are vortexed for 2 minutes, and centrifuged at 14,000 rpms for 3 minutes.
4. 100 μl of the supernatant is loaded into 12 mm HPLC liquid sampler vials.
5. A 20 μl addition of […] standard is added to the 100 μl aliquot to monitor variation in instrumental response.
6. 10 μl of sample is injected for analysis via the mass spectrometer.
HPLC Instrumental Parameters
• HPLC: Hewlett Packard HP1100 Binary Solvent Delivery System. HPLC Gradient Conditions • A=H2O 0.2% Formic Acid • B=Acetonitrile 0.2% Formic Acid Mobile Phase
• HPLC Analytical Column: Keystone Phenyl-1 Hypersil 2.0×100 mm, 5μ 120 Å pore pore size, P/N# 105-36-2. • Injection Volume: 10 μl • Flow Rate: 0.20 mL/min. Mass Spectrometry Instrumental Parameters • Instrument: Micromass Quattro Ultima, Tandem Mass Spectrometer • Ionization Technique: Orthogonal spray (ESI) • Polarity: Positive • Dwell Time: 300 msec • Pause Time: 5 msec • Scan time: 0.9 sec • Scan Mode: MRM (Multiple Reaction Monitoring) • Ions/Transitions: For compound I-A m/z509.1-243.1 • For compound II m/z481.1-215.1 Pharmacokinetic Parameters
Pharmacokinetic analysis of these plasma concentration data was conducted using noncompartmental methods. The area under the curve (AUC(0-t)) was estimated from time zero to the last measured time point using the linear trapezoidal rule. The rate of elimination (ke) was estimated by log-linear regression from the terminal phase of the plasma concentration-time curves. Area under the tail of the curve was estimated as the ratio of the last measured concentration to ke. The area under the curve from time zero to infinity (AUC(0-∞)) was obtained by addition of the area under the tail to AUC(0-t). Elimination half-life was estimated as 0.693/ke. The observed values for the peak plasma concentration (Cmax) were recorded.

| SMILES | AUC | Bioavailability (in words) |
| --- | --- | --- |
| CCO[C@@H]1OC(=O)C[C@@H]1NC(=O)[C@@H]1CCCN1C(=O)[C@H](C)NC(=O)c1ccc(N)c(Cl)c1 [Compound A, reference compound] | 2.18 μgXh/mL |  |
| CCOC1OC(=O)C[C@@H]1NC(=O)[C@@H]1CCCN1C(=O)[C@@H](NC(=O)c1nccc2ccccc12)C(C)(C)C (some centres unmarked) [Compound B, reference compound] | 1.35 μgXh/mL |  |
| CCO[C@@H]1OC(=O)C[C@@H]1NC(=O)[C@@H]1CCCN1C(=O)[C@@H](NC(=O)c1ccc(N)c(Cl)c1)C(C)(C)C [Compound I] | 11.7 μgXh/mL | unexpectedly improved bioavailability |
| CC(C)(C)C(NC(=O)c1ccc(N)c(Cl)c1)C(=O)N1CCCC1C(=O)NC(C=O)CC(=O)O (centres unmarked) [II] |  | poor bioavailability |
